From publication PMC11647725, “Discovery of 4-(5-Membered)Heteroarylether-6-methylpicolinamide Negative Allosteric Modulators of Metabotropic Glutamate Receptor Subtype 5” (ACS Medicinal Chemistry Letters, 2024)

How the values were obtained:
Opiate δ1 (OP1, DOP) = Opiate δ1 (OP1, DOP) (Homo sapiens, UniProt P41143); assay: Lead Profiling Screen, Eurofins Panlabs; format: binding; details: hum, read-out: % inh at 10 μM
[1] = Binding in plasma from human (equilibrium dialysis); format: in vitro ADME; details: human, plasma, read-out: Human fu,plasma
Protocol: Binding in plasma from rat and human.
Determination of compounds’ fraction unbound (f u) in plasma from rat and human was conducted in vitro via equilibrium dialysis using HTDialysis membrane plates. Dialysis membranes (four paired strips per HTD assay) were hydrated as described by the manufacturer and inserted into the HTD plate, which was assembled and prepared for sample addition by the dispensing of blank buffer (DPBS, 100 µL/well) into the ‘top half’ of each membrane-split well. Each compound was diluted into plasma from each species (5 µM final concentration), which was aliquoted in triplicate to the ‘bottom half’ of the prepared HTD plate wells. The HTD plate was sealed and incubated for 6 hours at 37 °C. Following incubation, each well (both top and bottom halves) were transferred (20 µL) to the corresponding wells of a 96-shallow-well (V-bottom) plate. The daughter plates were then matrix-matched (buffer side wells received equal volume of plasma, and plasma side wells received equal volume of buffer), and extraction solution (120 µL; acetonitrile containing 50 nM carbamazepine as IS) was added to all wells of both daughter plates to precipitate protein and extract test article. The plates were then sealed and centrifuged (3500 rcf) for 10 minutes at ambient temperature. Supernatant (60 µL) from each well of the daughter plates was then transferred to the corresponding wells of new daughter plates (96-shallow-well, V bottom) containing water (Milli-Q, 60 µL/well), and the plates were sealed in preparation for LC-MS/MS analysis (see below). fu was calculated as (analyte to IS MS peak area ratio from Trans-buffer side) / (analyte to IS MS peak area ratio from Cis-plasma side). Mean values for each species were calculated from 3 replicates. […]
Mean values for each species were calculated from 3 replicates. […]
After 5 minutes (pre-incubation), reactions were initiated by addition of nicotinamide adenine dinucleotide phosphate (NADPH, 1 mM final concentration). At selected time intervals (0, 3, 7, 15, 25, and 45 minutes) post-addition of NADPH, aliquots (50 µL) were taken and placed into a 96-shallow-well plate containing ice cold acetonitrile (150 µL) with carbamazepine (IS, 50 nM). The plates were then centrifuged (3000 rcf at 4 °C) for 10 minutes. The supernatants were transferred to a new 96-shallow-well daughter plate and diluted (1:1 v/v) with water (Milli-Q filtered). The plates were then sealed in preparation for LC-MS/MS analysis (see below).

Muscarinic M3 = Muscarinic M3 (Homo sapiens, UniProt P20309); assay: Lead Profiling Screen, Eurofins Panlabs; format: binding; details: Muscarinic M3, hum, read-out: % inh at 10 μM
Muscarinic M3, sequence (P20309 whole entry): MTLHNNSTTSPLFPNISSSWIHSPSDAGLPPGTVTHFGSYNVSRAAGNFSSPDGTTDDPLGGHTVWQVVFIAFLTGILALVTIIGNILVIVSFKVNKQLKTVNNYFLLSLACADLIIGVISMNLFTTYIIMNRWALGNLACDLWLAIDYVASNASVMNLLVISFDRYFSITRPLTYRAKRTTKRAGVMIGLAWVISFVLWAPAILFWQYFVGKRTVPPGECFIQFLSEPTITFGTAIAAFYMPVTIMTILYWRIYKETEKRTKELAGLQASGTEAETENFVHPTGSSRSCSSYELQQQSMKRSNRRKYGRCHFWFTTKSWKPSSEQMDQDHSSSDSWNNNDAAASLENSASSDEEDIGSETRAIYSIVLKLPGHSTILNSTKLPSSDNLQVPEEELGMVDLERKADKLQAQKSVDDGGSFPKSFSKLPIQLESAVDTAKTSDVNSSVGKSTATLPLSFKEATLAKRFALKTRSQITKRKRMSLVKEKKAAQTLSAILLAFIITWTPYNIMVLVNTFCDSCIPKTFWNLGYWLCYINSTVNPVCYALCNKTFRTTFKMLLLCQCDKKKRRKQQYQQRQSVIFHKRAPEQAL

hERG potassium channel = hERG potassium channel (Homo sapiens, UniProt Q12809); assay: Lead Profiling Screen, Eurofins Panlabs; format: binding; details: hum, read-out: % inh at 10 μM
hERG potassium channel, sequence (Q12809 whole entry): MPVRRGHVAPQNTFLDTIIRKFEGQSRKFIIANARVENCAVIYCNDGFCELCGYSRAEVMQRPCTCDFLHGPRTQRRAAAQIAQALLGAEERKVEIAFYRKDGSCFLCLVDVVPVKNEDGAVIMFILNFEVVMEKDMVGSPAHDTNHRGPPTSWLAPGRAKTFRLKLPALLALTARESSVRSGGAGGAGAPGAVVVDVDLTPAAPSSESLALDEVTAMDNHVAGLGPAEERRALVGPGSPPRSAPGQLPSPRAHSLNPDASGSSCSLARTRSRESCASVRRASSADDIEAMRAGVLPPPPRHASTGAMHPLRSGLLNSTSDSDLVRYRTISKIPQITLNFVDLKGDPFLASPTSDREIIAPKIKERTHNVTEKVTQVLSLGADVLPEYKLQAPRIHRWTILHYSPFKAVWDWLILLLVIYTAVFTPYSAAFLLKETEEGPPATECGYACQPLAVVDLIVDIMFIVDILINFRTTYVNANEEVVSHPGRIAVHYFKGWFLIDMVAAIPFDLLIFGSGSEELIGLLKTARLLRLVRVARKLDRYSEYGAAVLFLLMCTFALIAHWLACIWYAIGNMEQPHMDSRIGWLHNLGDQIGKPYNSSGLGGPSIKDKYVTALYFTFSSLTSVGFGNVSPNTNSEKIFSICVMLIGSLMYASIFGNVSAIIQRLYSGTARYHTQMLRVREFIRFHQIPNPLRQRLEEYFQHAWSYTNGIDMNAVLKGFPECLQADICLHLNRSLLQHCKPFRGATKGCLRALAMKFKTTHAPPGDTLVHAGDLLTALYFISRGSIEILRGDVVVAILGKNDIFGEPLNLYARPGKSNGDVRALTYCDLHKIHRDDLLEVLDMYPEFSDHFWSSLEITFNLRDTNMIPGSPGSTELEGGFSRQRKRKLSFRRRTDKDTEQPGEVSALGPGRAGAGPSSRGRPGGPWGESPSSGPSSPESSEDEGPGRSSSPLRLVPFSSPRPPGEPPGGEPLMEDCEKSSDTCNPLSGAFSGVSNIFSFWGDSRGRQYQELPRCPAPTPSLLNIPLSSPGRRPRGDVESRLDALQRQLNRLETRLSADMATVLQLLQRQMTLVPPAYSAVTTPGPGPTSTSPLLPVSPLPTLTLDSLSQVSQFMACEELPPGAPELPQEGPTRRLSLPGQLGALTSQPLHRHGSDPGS

Prostanoid EP4 = Prostanoid EP4 (Homo sapiens, UniProt P35408); assay: Lead Profiling Screen, Eurofins Panlabs; format: binding; details: Prostanoid EP4, hum, read-out: % inh at 10 μM
Prostanoid EP4, sequence (P35408 whole entry): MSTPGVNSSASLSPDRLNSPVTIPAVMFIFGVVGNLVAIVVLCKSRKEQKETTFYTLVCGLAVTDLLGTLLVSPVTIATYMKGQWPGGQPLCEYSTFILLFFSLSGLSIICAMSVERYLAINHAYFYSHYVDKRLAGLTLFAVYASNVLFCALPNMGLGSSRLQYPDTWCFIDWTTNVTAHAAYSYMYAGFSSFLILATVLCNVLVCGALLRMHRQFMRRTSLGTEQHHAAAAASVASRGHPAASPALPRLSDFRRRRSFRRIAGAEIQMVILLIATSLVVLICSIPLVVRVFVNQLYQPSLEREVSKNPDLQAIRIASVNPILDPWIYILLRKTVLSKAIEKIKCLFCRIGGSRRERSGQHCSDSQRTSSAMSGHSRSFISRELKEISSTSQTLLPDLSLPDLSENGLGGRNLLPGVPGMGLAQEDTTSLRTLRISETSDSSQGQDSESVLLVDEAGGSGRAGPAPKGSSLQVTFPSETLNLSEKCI

Purinergic P2X = assay: Lead Profiling Screen, Eurofins Panlabs; format: binding; details: rat
Imidazoline I2, Central = assay: Lead Profiling Screen, Eurofins Panlabs; format: binding; details: rat
Text: Nonetheless, as a non-aryl/heterobiaryl acetylene mGlu5 NAM with an encouraging in vivo rodent PK profile, we wished to further assess VU6043653 as a novel chemotype. Therefore, we compared metabolites in multiple species to better understand species differences in clearance and metabolism. […] Consistent with the high plasma clearance observed in dogs, high turnover was observed more so in dog hepatocytes than any other species tested (see the Supporting Information for additional details and results). To further evaluate our novel chemotype, the off-target and safety/toxicity profiles for this compound were further investigated.
Table S2. Lead Profiling Screen – Eurofins Panlabs for VU6043653.
Assay Name Species % inh at 10 μM […]
Imidazoline I2, Central rat -1

Opiate δ1 (OP1, DOP), sequence (P41143 whole entry): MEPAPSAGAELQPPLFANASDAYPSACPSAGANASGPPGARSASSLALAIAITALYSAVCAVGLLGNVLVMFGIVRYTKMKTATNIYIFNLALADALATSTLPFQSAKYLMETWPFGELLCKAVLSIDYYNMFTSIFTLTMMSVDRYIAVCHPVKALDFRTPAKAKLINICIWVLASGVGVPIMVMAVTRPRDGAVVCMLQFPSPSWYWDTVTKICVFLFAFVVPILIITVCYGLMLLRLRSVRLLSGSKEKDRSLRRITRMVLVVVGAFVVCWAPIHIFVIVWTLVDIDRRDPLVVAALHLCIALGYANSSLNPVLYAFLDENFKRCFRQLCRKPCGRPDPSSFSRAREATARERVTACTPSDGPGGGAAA

Work on `Cc1cc(Oc2cnn(C)c2)cc(C(=O)Nc2ccc(F)cn2)n1` [22iA] yielded an inhibition at 10 µM (Opiate δ1 (OP1, DOP)) of 3%, a fraction unbound at 6 h, 5 µM [1] of 0.059 and an inhibition at 10 µM (Muscarinic M3) of -15%. The inhibition at 10 µM (hERG potassium channel) was 14%, the inhibition at 10 µM (Prostanoid EP4) was 8% and the “% inh at 10 μM” value (Purinergic P2X) was 15%. The “% inh at 10 μM” value (Imidazoline I2, Central) was -1%.
